# Experimental data reported in patent publication US20220228120A1, “Cardiomyocyte Compositions and Use Thereof” (UNIVERSITY HEALTH NETWORK, priority 2019, published 2022).
# Legend:
# Assay type in all cases: cell-based, human
# mature compact CMs [1] = assay: In vitro pathological stimuli model: ECAR by Seahorse XF glycolysis assay
# Protocol: For the Seahorse™ XF FAO assay, a few EBs were plated onto an XFe24 cell culture microplate coated by Matrigel™ 48 hours prior to the assay. 24 hours prior to the assay, replace the culture medium with substrate-limited medium containing 0.5 mM glucose (Sigma), 1.0 mM Glutamine (Life technology), 0.5 mM Carnitine (Sigma), and 1% Fetal Bovine Serum (Wisent) in DMEM no glucose medium (ThermoFisher). 45 mins prior to the assay, wash the cells two times with FAO assay medium, add 375 μl/well FAO assay medium to the cells and incubate for 45 mins at 37 C. Load the assay cartridge with Seahorse™ XF Cell Mito Stress Test compounds (2 μM oligomycin, 5 μM FCCP, 0.5 μM rotenone/0.5 μM antimycin A). […] After the measurement of OCR, EBs are dissociated and counted the cell number in each well. […] After the measurement of ECAR, EBs are dissociated and counted the cell number in each well. […]
# To induce a pathological response in the mature CMs, we cultured them in the presence of isoproterenol (100 μM), a small molecule adrenergic agonist in a hypoxic (5% O2) environment, in low glucose containing medium with Palmitate (200 μM) for 6 days (FIG. 8B). […] To assess the glycolytic flux in these cells, we measured the extracellular acidification rate (ECAR) as an index of glycolytic activity using the Seahorse™ XF assay (Mookerjee and Brand. J Vis Exp. (2015) e53464).
# mature and immature CMs [2] = assay: In vitro pathological stimuli model: CASP9 expression and Annexin V apoptosis assay
# Protocol: After the culture in the pathological condition for 6 days, the EBs were dissociated as described above. To detect the apoptosis following the pathological stimuli, TACS® Annexin V assay (TREVIGEN) was performed by flowcytometry. Cells were washed with PBS and stained with Annexin V-FITC for 15 mins at room temperature. Add Binding Buffer to samples and process by flowcytometry. Stained cells were analyzed using the LSR II Flow cytometer (BD). Data were analyzed using FlowJo™ software (Tree Star).
# (§1) To induce a pathological response in the mature CMs, we cultured them in the presence of isoproterenol (100 μM), a small molecule adrenergic agonist in a hypoxic (5% O2) environment, in low glucose containing medium with Palmitate (200 μM) for 6 days (FIG. 8B). Immature control cells were treated under the same conditions. […] (FIG. 8C). To assess the glycolytic flux in these cells, we measured the extracellular acidification rate (ECAR) as an index of glycolytic activity using the Seahorse™ XF assay (Mookerjee and Brand. J Vis Exp. (2015) e53464).
# mature compact CMs [3] = assay: In vitro pathological stimuli model (hypoxia+ISO): RT-qPCR
# Protocol: Total RNA from samples was isolated using RNAqueous™-micro Kit including RNase-free DNase treatment (invitrogen). RNA from dissected ventricular and atrial tissue of human fetal hearts was isolated using the TRIzol® method (ThermoFisher) and treated with DNase (Ambion®). Isolated RNA was reverse transcribed into cDNA using oligo (dT) primers and random hexamers and iScript™ Reverse Transcriptase (ThermoFisher). QRT-PCR was performed on an EP Real-Plex MasterCycler® (Eppendorf®) using QuantiFast® SYBR Green PCR kit (QIAGEN). The copy number of each gene relative to the house keeping gene TBP.
# as §1
# mature and immature CMs [4] = assay: In vitro pathological stimuli model: Nile Red lipid accumulation; details: treated populations
# Protocol: To quantify the lipid droplets, Cayman's Lipid Droplets Fluorescence Assay Kit (Cayman) was used. After the EBs were dissociated as described above, cells were fixed by Fixative Solution for 10 mins at room temperature. Cells were washed with Assay Buffer and stained with the Nile Red Staining Solution at room temperature for 15 mins. Cells were washed with Assay Buffer and analyzed with filter sets to detect FITC using the LSR II Flow cytometer (BD PharMingen™). Data were analyzed using FlowJo™ software (Tree Star).
# as §1
# hPSC-derived atrial CMs = assay: Seahorse FAO Cell Mito stress test (OCR), atrial CMs; details: ETO 40 μM
# [5] = system: hPSC-derived compact cardiomyocytes; assay: Seahorse XF FAO Cell Mito stress test (OCR), compact cardiomyocytes; details: ETO 40 μM, mature cells
compound,measurement,setting,value
"O=CC[C@@H](O)[C@H](O)[C@H](O)CO [2-DG, 2-deoxy-glucose]",ECAR following injection,"mature compact CMs [1]; mature CMs exposed to the pathological stimuli, 2-DG 100 mM",rapid decrease
CC(C)NCC(O)c1ccc(O)c(O)c1 (stereo not shown) [isoproterenol],glycolytic activity (ECAR),"mature compact CMs [1]; isoproterenol 100 μM, 5% O2, 6 days, mature CMs",significantly upregulated
same,"apoptosis (CASP9, Annexin V^+ cells)",mature and immature CMs [2]; immature population,not in the immature population
same,"apoptosis (CASP9, Annexin V^+ cells)",mature and immature CMs [2]; mature population,induced apoptosis
same,"expression of glycolysis-related genes GLUT1, GAPDH and LDHA","mature compact CMs [3]; isoproterenol 100 μM, 5% O2, low glucose with Palmitate 200 μM, 6 days, mature CMs",upregulation
same,"expression of CD36, GPD1 and PLIN2",mature compact CMs [3]; mature CMs under the pathological stimuli,upregulated
same,expression of hormone sensitive lipase HSL,mature compact CMs [3]; treated mature CMs,downregulated
same,lipid accumulation (Nile red),mature and immature CMs [4],increases
"CCOC(=O)[C@@]1(CCCCCCOc2ccc(Cl)cc2)CO1 [ETO, etomoxir]","mitochondrial oxidation, atrial CMs",hPSC-derived atrial CMs,blocked
same,mitochondrial oxidation,[5],blocked
